# Experimental data as given in the supplement of paper PMC10949913.
# Experiments:
# Assay in all cases: area under concentration-response curve (viability) (AUC (a.u.)); higher = less active
# Conditions in all cases: 48 h
# CU-ACC1 = test system: CU-ACC1
# Procedure, shortened: (§1)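 In 1,536-well plates, 500–1,000 cells/well of three adrenocortical carcinoma cell lines in 5 µL medium received 23 nL of each library compound across 11 concentrations. At 48 h, CellTiter-Glo was incubated for 15 minutes at room temperature and luminescence measured. Per-plate normalisation used vehicle and empty-well controls, and only inhibitory or non-responding curve classes were kept when fitting concentration-response curves for AC50 and area under the curve.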
# CU-ACC2 = test system: CU-ACC2
# Procedure, shortened: as §1
# NCI-H295R = test system: NCI-H295R
# Procedure, shortened: as §1
SMILES,area under concentration-response curve (CU-ACC1),area under concentration-response curve (CU-ACC2),area under concentration-response curve (NCI-H295R)
O=C(Nc1ccc(-c2ccnc(Nc3ccc(N4CCOCC4)cc3)n2)cc1)C1CCCN1 (stereo not given),501,601,553
NC/1=N/[C@]2(COC[C@H]2CS1)C3=CC(=CC=C3F)NC(=O)C4=NC=C(F)C=C4,499,569,490
Nc1cc(COc2c(Cl)cc(C[C@H](N)C(=O)O)cc2Cl)c2oc(-c3ccccc3)nc2c1,488,577,588
Cn1c(CNc2ccc(C(=N)N)cc2)nc2cc(C(=O)N(CCC(=O)O)c3ccccn3)ccc21,715,929,834
OC[C@H]1O[C@H](C[C@@H]1O)N2/C=C(C(=O)NC2=O)/C(F)(F)F,538,650,583
CCN([C@H]1CC[C@@H](CC1)N(C)CCOC)C2=C(C)C(=CC(=C2)C#CCN3CCOCC3)C(=O)NC\C4=C(C)\C=C(\C)NC4=O,536,500,552
COC(=O)N[C@@H](C)CNc1nccc(-c2cn(C(C)C)nc2-c2cc(Cl)cc(N[S+](C)(=O)[O-])c2F)n1,497,566,539
C[C@@H]1C(=O)OC2[C@H](O)[C@]34[C@H]5C[C@@H](C(C)(C)C)[C@]36[C@@H](OC(=O)[C@@H]6O)O[C@@]4(C(=O)O5)[C@]21O (stereo not given in full),463,556,532
CCNC(=O)CCC/C=C\C[C@@H]1[C@@H](/C=C/C(O)CCc2ccccc2)[C@@H](O)C[C@@H]1O (stereo not given in full),508,646,571
C=C(c1ccc(C(=O)O)cc1)c1cc2c(cc1C)C(C)(C)CCC2(C)C,509,500,511
Nc1ccc([S+](N)(=O)[O-])cc1,417,415,409
NNCCc1ccccc1.O=S(=O)(O)O,450,530,486
CN[C@@H](C)C(=O)N[C@H]1CN(C(=O)CC(C)C)CC[C@H]2CC[C@@H](C(=O)NC(c3ccccc3)c3ccccc3)N2C1=O,338,372,420
COc1cc2cc(c1Cl)N(C)C(=O)C[C@H](OC(=O)C(C)C)[C@]1(C)O[C@@H]1[C@H](C)[C@@H]1C[C@@](O)(NC(=O)O1)[C@H](OC)/C=C/C=C(\C)C2,505,440,346
COc1cc2nccc(Oc3ccc(NC(=O)Nc4ccc(F)cc4F)c(F)c3)c2cc1OC,548,623,515
CC1=CC(=O)c2ccccc2C1=O,495,530,501
CC(C(=O)O)c1ccc(-c2ccccc2)c(F)c1 (stereo not given),469,479,470
CCOC(=O)[C@H](CCc1ccccc1)N[C@H]1CS[C@H](c2cccs2)CN(CC(=O)O)C1=O.Cl,513,584,541
C[N+]1(C)[C@@H]2CC(OC(=O)[C@H](CO)c3ccccc3)C[C@H]1[C@@H]1O[C@@H]12 (stereo not given in full),531,556,500
C[S+](=O)([O-])Oc1ccc2c(NC(N)=O)c(C(=O)c3ccc(Cl)cc3Cl)oc2c1,515,568,532
ClC1=CC=C2N/C3=N/C(=O)CN3CC2=C1Cl,519,626,542
NC(CC1c2ccccc2Oc2ccccc21)(C(=O)O)C1CC1C(=O)O (stereo not given),530,621,512
Cc1ccccc1N1C(=O)c2cc([S+](N)(=O)[O-])c(Cl)cc2NC1C (stereo not given),495,599,512
NC(=O)C1CCCc2c1[nH]c1ccc(Cl)cc21 (stereo not given),496,597,545
CC(=O)Nc1ccc(O)cc1,348,467,445
C[C@@H]1C[C@H]2[C@@H]3CCC\4=C\C(=O)\C=C/[C@]4(C)[C@@]3(F)[C@@H](O)C[C@]2(C)[C@@]1(O)C(=O)CO,515,588,481
C[C@@H]1CCN(C(=O)N2CCCC2)C[C@@H]1N(C)c1ncnc2[nH]ccc12,477,562,505
NC(=O)OCC(COC(N)=O)c1ccccc1,497,554,460
Oc1nc(-c2ccc(C(F)(F)F)cc2)nc2c1CSCC2,511,509,483
CCC(=O)[N-]S(=O)(=O)c1ccc(-c2c(-c3ccccc3)noc2C)cc1.[Na+],549,656,595
